{"source": "patent US11707468B2", "about": "“Methods of treating pancreatic cancer” (UNIVERSITY OF MARYLAND, BALTIMORE, priority 2014, dated 2023)", "key": {"Panc-1 cells": {"system": "Panc-1 cells", "experiment": "Wound-healing (scratch) migration assay", "assay_type": "cell-based, human", "conditions": "Panc-1, 5 μM, 12 hours", "procedure": "FIG. 12: Panc-1 and S2-013 cells plated in 24-well plate in a monolayer and scratch wound made with a 200 μl pipette tip and treated with indicated compounds at 5 μM for 12 hours.\nThe present Example investigates whether ARDAs inhibit the migratory and invasive potential of PDAC cells. Decreased invasive potential of PDAC cells was shown through wound-healing and matrigel-coated Boyden chambers assays. Cells grown to a monolayer were used in migration assay after a scratch was made and incubated for 12 hours. […] In contrast, CGP and Gem were not effective. As expected these compounds also exerted strong anti-invasive efficacy against Capan-1 cells. The tested concentrations at time (12 h) of assay, all cells in each treatment group were ≥90% viable."}, "[1]": {"system": "Gem-naïve and Gem-resistant PDAC cells", "experiment": "Colony formation assay", "assay_type": "cell-based, human", "procedure": "(§1) S2-013 (FIG. 10A), MiaPaCa-2 (FIG. 10B) and MiaPaCa-GTR (FIG. 10C) show cells seeded at 1000 cells/well and treated with compounds (μM) for 14 days. Media was replaced every 72 hours. Cells were stained with 0.05% crystal violet. Conditioned media from MiaPaCa-2 cells after being treated with indicated compounds was separated on a zymogram gel to analyze the proteolytic activity of MMP9 after treatment (FIG. 10D).\nFIG. 11: Inhibition of colony formation in S2-013 cells.\nS2-013, MiaPaCa-2 and MiaPaCa-GTR were seeded at 1000 cells/well and treated with compounds (μM) for 14 days. Media was replaced every 72 h. Cells were stained with 0.05% crystal violet (FIG. 10A-C)."}, "MiaPaCa-GR [2]": {"system": "MiaPaCa-GR", "experiment": "Apoptosis, flow cytometry Annexin V and PI staining", "assay_type": "cell-based, human", "conditions": "MiaPaCa-GR cells, 24 hours", "procedure": "(§2) FIG. 18: Apoptotic induction of Gal and Analogs and Gem-resistant PDAC cells. (FIG. 18A) Galeterone and analogs induce apoptosis in S2-013 cells analyzed by acridine orange ethidium bromide staining. Cells were treated with 2.5 μM. (FIG. 18B) Galeterone and analogs were compared to gemcitabine in inducing apoptosis analyzed by flow cytometry in MiaPaCa-GR cells.\n(§3) Cells treated with indicated doses for 24 hours were analyzed by acridine orange ethidium bromide assay and also by FACS analysis using Annexin V and PI staining following manufacturer's protocol. […] Galeterone and analogs induce apoptosis in S2-013 cells analyzed by acridine orange ethidium bromide staining ([…]). Galeterone and analogs were compared to gemcitabine in inducing both early and late apoptosis analyzed by flow cytometry (FIG. 18B)."}, "S2-013 [3]": {"system": "S2-013", "experiment": "Apoptosis, acridine orange ethidium bromide staining", "assay_type": "cell-based, human", "conditions": "S2-013 metastatic cell line, 2.5 μM, 24 hours", "procedure": "as §2, §3"}, "MiaPaCa-2": {"system": "MiaPaCa-2", "experiment": "MTT cell viability / anti-proliferative assay", "assay_type": "cell-based, human", "conditions": "for anti-proliferative potency compared with gemcitabine: MiaPaCa-2 cells, MTT assay after a 7-day agent treatment", "procedure": "FIG. 6: Inhibition of PDAC cell proliferation: MTT assay after a 7-day agent treatment.\n(§4) FIG. 7: Effect of Galeterone, analogs and Gemcitabine on PDAC cells. MTT cell viability assays were conducted on Gem-naïve and Gem-resistant cells.\nThe present Example presents the in vitro anti-proliferative activities of compounds in three human PDAC cell lines, including, Capan-1, MiaPaCa-2 and S2-013 because of their relative resistant nature (30, 31). The cell lines used were authenticated by short tandem repeat.\n(§5) The present Example investigates the potential efficacy of galeterone and three lead ARDAs in inhibiting cell viability of both gemcitabine naïve (Gem-naïve) and gemcitabine/erlotinib resistant human pancreatic cancer cells in vitro. […] Galeterone and its analogs show significant anti-proliferative active against both gemcitabine naïve and gemcitabine resistant PDAC cells."}, "S2-013 [4]": {"system": "S2-013", "experiment": "MTT cell viability assay", "assay_type": "cell-based", "conditions": "Homo sapiens, S2-013, single agent", "procedure": "as §4, §5"}, "MMP9": {"system": "MMP9", "experiment": "Zymography of conditioned media from MiaPaCa-2 cells", "assay_type": "cell-based, human", "conditions": "conditioned media of MiaPaCa-2 cells treated 3 days", "procedure": "as §1\nZymography assays were performed by seeding cells in 10 cm plates in phenol-red free media with no fetal bovine serum (FBS) and treated for 3 days. Media from cells were concentrated using amicon ultra filtration columns and normalized protein run on a 10% gelatin gels. Conditioned media from MiaPaCa-2 cells after being treated with indicated compounds was separated on a zymogram gel to analyze the proteolytic activity of MMP9 after treatment (FIG. 10D). […] The ARDAs caused significant depletion of matrix metalloproteinases (MMPs)."}, "MiaPaCa-GTR": {"system": "MiaPaCa-GTR", "experiment": "MTT cell viability assay", "assay_type": "cell-based", "conditions": "Homo sapiens, MiaPaCa-GTR (gemcitabine/erlotinib resistant), single agent", "procedure": "as §4\n(§6) Examples below were preformed using a panel of PDAC cells from primary tumors (MiaPaca-2, Panc-1, Capan-1 and HS766T), metastatic lesions (S2-013 and S2VP10) and drug-resistant MiaPaCa-GR (gemcitabine resistant-200 nM) and MiaPaCa-GTR (erlotinib-2 μM/gemcitabine-200 nM) cell lines. The activities of ARDAs and Gemcitabine (Gem) can be evaluated using complementary assays and molecular determinants can also be identified in a panel of human PDAC cells. The mechanism(s) of action of ARDAs alone and in combination with Gem with the primary goal to identify the key mediators for their activities in PDAC cells are disclosed here. […] Initially four cell line (2 Gem-naïve and the two Gem-resistant lines) will be used. Key findings derived from these cell lines can be validated in additional cell lines if necessary. How these agents modulate Mnk1/2-peIF4E and NFκ-B can also be focused on.\n(§7) The present Example investigates the potential efficacy of galeterone and three lead ARDAs in inhibiting cell viability of both gemcitabine naïve (Gem-naïve) and gemcitabine/erlotinib resistant human pancreatic cancer cells in vitro. […]"}, "MiaPaCa-GR [5]": {"system": "MiaPaCa-GR", "experiment": "MTT cell viability assay", "assay_type": "cell-based", "conditions": "Homo sapiens, MiaPaCa-GR (gemcitabine resistant), single agent", "procedure": "as §4, §6, §7"}, "androgen receptor": {"molecular_target": "T1, androgen receptor (Homo sapiens, UniProt P10275)", "T1 sequence (P10275 1-920)": "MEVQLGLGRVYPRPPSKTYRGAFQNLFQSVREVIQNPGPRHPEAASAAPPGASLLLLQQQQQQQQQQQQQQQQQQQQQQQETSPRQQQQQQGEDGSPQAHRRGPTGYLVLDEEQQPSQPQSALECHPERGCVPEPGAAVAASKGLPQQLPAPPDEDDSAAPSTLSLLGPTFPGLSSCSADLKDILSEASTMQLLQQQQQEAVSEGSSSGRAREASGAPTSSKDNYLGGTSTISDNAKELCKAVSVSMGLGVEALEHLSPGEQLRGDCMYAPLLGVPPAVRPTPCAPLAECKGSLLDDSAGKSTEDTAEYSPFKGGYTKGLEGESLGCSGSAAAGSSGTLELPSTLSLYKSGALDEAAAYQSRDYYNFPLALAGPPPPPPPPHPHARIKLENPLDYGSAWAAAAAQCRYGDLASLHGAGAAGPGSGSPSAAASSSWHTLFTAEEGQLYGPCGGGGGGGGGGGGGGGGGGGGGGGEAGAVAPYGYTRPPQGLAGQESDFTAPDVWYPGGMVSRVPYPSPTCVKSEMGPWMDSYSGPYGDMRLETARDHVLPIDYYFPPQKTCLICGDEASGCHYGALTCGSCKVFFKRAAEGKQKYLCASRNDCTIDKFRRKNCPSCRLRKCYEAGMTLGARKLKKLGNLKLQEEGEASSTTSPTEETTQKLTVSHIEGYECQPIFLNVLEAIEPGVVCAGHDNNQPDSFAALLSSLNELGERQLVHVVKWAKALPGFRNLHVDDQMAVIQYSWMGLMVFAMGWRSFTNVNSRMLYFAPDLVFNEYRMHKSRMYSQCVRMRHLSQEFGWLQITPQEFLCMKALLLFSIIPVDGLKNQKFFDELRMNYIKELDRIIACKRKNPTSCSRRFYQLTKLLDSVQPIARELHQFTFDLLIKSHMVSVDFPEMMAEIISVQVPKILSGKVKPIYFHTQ", "conditions": "compared to VN/124-1, reference (1); cited from earlier work"}, "[6]": {"conditions": "compared to VN/124-1, reference (1); cited from earlier work"}, "[7]": {"system": "patients with advanced-stage pancreatic cancer", "conditions": "in combination with gemcitabine, Moore et al. 2007; cited from earlier work"}, "[8]": {"conditions": "1000 cells/well, treated 14 days, alone or in combination with gemcitabine"}}}
{"smiles": "Nc1ncnc2n[nH]c(Nc3ccc(F)cc3)c12", "note": "[CGP, reference compound]", "values": [{"measurement": "cell migration", "setting": "Panc-1 cells", "result": "not effective"}, {"measurement": "colony formation", "setting": "[1]; CGP at 2.5 μM", "result": "did not significantly affect colony formation"}]}
{"smiles": "C[C@]12CC[C@H](O)CC1=CC[C@@H]1[C@@H]2CC[C@]2(C)C(n3cnc4ccccc43)=CC[C@@H]12", "note": "[Galeterone, galeterone]", "values": [{"measurement": "induction of apoptosis", "setting": "MiaPaCa-GR [2]", "result": "significantly induce apoptosis"}, {"measurement": "cell migration", "setting": "Panc-1 cells", "result": "significant inhibition"}, {"measurement": "induction of apoptosis", "setting": "S2-013 [3]", "result": "significantly induce apoptosis"}, {"measurement": "GI50", "setting": "MiaPaCa-2; Homo sapiens, MIA PaCa-2, MiaPaCa-2, single agent, MTT", "result": 1.23, "unit": "µM"}, {"measurement": "anti-proliferative potency compared with gemcitabine", "setting": "MiaPaCa-2", "result": "almost as potent as gemcitabine"}, {"measurement": "colony formation", "setting": "[1]; [8]", "result": "significantly inhibited"}, {"measurement": "GI50", "setting": "S2-013 [4]", "result": 0.49, "unit": "µM"}, {"measurement": "MMP9 secretion", "setting": "MMP9; alone", "result": "decreases MMP9 secretion"}, {"measurement": "MMP9 secretion", "setting": "MMP9; in combination with gemcitabine", "result": "decreases MMP9 secretion"}, {"measurement": "GI50", "setting": "MiaPaCa-GTR", "result": 2.19, "unit": "µM"}, {"measurement": "GI50", "setting": "MiaPaCa-GR [5]", "result": 7.08, "unit": "µM"}]}
{"smiles": "Nc1ccn([C@@H]2O[C@H](CO)[C@@H](O)C2(F)F)c(=O)n1", "note": "[Gemcitabine, reference compound]", "values": [{"measurement": "cell migration", "setting": "Panc-1 cells", "result": "not effective"}, {"measurement": "colony formation", "setting": "[1]; [8]", "result": "inhibit colony formation"}]}
{"smiles": "C[C@]12CC[C@H](OCc3ccncc3)CC1=CCC1C2CC[C@]2(C)C(n3cnc4ccccc43)=CCC12", "note": "(stereo partly shown) [VNPP414]", "values": [{"measurement": "cell migration", "setting": "Panc-1 cells", "result": "significant inhibition"}, {"measurement": "anti-proliferative potency compared with gemcitabine", "setting": "MiaPaCa-2", "result": "almost as potent as gemcitabine"}]}
{"smiles": "C[C@]12CC[C@H](n3ccnc3)CC1=CC[C@@H]1[C@@H]2CC[C@]2(C)C(n3cnc4ccccc43)=CC[C@@H]12", "note": "[VNPP433-3β]", "values": [{"measurement": "anti-proliferative potency compared with gemcitabine", "setting": "MiaPaCa-2", "result": "almost as potent as gemcitabine"}]}
{"smiles": "C[C@]12CC[C@H](OC(=O)n3ccnc3)CC1=CCC1C2CC[C@]2(C)C(n3cnc4ccccc43)=CCC12", "note": "(stereo partly shown) [VNPT-55]", "values": [{"measurement": "ARD potency relative to VN/124-1", "setting": "androgen receptor", "result": 8, "unit": "fold"}, {"measurement": "anti-proliferative potency compared with gemcitabine", "setting": "MiaPaCa-2", "result": "almost as potent as gemcitabine"}, {"measurement": "anti-proliferative (AP) potency relative to VN/124-1", "setting": "[6]", "result": 4, "unit": "fold"}]}
{"smiles": "C#Cc1cccc(Nc2ncnc3cc(OCCOC)c(OCCOC)cc23)c1", "note": "[erlotinib]", "values": [{"measurement": "median overall survival benefit", "setting": "[7]", "result": "less than four weeks"}]}
